Data reported in publication PMC4256409, “Role of Phenylalanine and Valine^10 Residues in the Antimicrobial Activity and Cytotoxicity of Piscidin-1” (PLoS ONE, 2014).
Where no end group is shown, it is not given here.

What was measured:
[1] = system: B. subtilis KCTC1021; type: cell-based, Bacillus subtilis; details: KCTC1021, 16 h
[2] = system: S. aureus KCTC1916; type: cell-based, Staphylococcus aureus; details: KCTC1916, 16 h
[3] = system: MDRAB CCARM 12037; type: cell-based, multidrug-resistant Acinetobacter baumanii; details: broth microdilution, 37°C, 16 h, three independent experiments in triplicate, SD 14.0%
[4] = system: MDRPA CCARM 2002; type: cell-based, multidrug-resistant P. aeruginosa; details: broth microdilution, 37°C, 16 h, three independent experiments in triplicate, SD 14.0%
[5] = system: E.coli KCTC2571; type: cell-based, Escherichia coli; details: KCTC2571, 16 h
[6] = system: P. aeruginosa KCTC2513; type: cell-based, Pseudomonas aeruginosa; details: KCTC2513, 16 h
[7] = system: MRSA CCARM 3126; type: cell-based, Methicillin-resistant S. aureus; details: CCARM 3126, 16 h
[8] = system: E. coli KCTC2593; type: cell-based, Escherichia coli; details: KCTC2593, 16 h
[9] = system: MDRPA CCARM 2163; type: cell-based, multidrug-resistant P. aeruginosa; details: broth microdilution, 37°C, 16 h, three independent experiments in triplicate, SD 14.0%
[10] = system: MDRST CCARM 8003; type: cell-based, multidrug-resistant S. typhimurium; details: broth microdilution, 37°C, 16 h, three independent experiments in triplicate, SD 14.0%
[11] = system: B. subtilis KCTC1022; type: cell-based, Bacillus subtilis; details: KCTC1022, 16 h
[12] = system: MRSA CCARM 3090; type: cell-based, Methicillin-resistant S. aureus; details: CCARM 3090, 16 h
[13] = system: MDRPA CCARM 2095; type: cell-based, multidrug-resistant P. aeruginosa; details: broth microdilution, 37°C, 16 h, three independent experiments in triplicate, SD 14.0%
[14] = system: MDREC CCARM 1229; type: cell-based, multidrug-resistant E. coli; details: broth microdilution, 37°C, 16 h, three independent experiments in triplicate, SD 14.0%
[15] = system: P. aeruginosa KCTC1637; type: cell-based, Pseudomonas aeruginosa; details: KCTC1637, 16 h
[16] = system: MDRAB CCARM 12036; type: cell-based, multidrug-resistant Acinetobacter baumanii; details: broth microdilution, 37°C, 16 h, three independent experiments in triplicate, SD 14.0%
[17] = system: MRSA CCARM 3108; type: cell-based, Methicillin-resistant S. aureus; details: CCARM 3108, 16 h
[18] = system: MRSA CCARM 3114; type: cell-based, Methicillin-resistant S. aureus; details: CCARM 3114, 16 h
[19] = system: B. subtilis KCTC3068; type: cell-based, Bacillus subtilis; details: KCTC3068, 16 h
[20] = system: MDRAB CCARM 12035; type: cell-based, multidrug-resistant Acinetobacter baumanii; details: broth microdilution, 37°C, 16 h, three independent experiments in triplicate, SD 14.0%
[21] = system: S. aureus KCTC3881; type: cell-based, Staphylococcus aureus; details: KCTC3881, 16 h
[22] = system: S. typhimurium KCTC1926; type: cell-based, Salmonella typhimurium; details: KCTC1926, 16 h
[23] = system: MDRST CCARM 8009; type: cell-based, multidrug-resistant S. typhimurium; details: broth microdilution, 37°C, 16 h, three independent experiments in triplicate, SD 14.0%
[24] = system: MDRPA CCARM 2003; type: cell-based, multidrug-resistant P. aeruginosa; details: broth microdilution, 37°C, 16 h, three independent experiments in triplicate, SD 14.0%
[25] = system: MDRAB CCARM 12005; type: cell-based, multidrug-resistant Acinetobacter baumanii; details: broth microdilution, 37°C, 16 h, three independent experiments in triplicate, SD 14.0%
[26] = system: Standard bacterial strains; type: cell-based; details: average over the 14 standard bacterial strains of Table 2
[27] = system: Drug-resistant bacterial strains; details: average over the 18 drug-resistant bacterial strains of Table 3
Excerpt: Escherichia coli KCTC 1682, E. coli KCTC 2593, E. coli KCTC 2571, Salmonella typhimurium KCTC 1926, Pseudomonas aeruginosa KCTC 1637, P. aeruginosa KCTC 2004, P. aeruginosa KCTC 2513, Bacillus subtilis KCTC 3068, B. subtilis KCTC 1021, B. subtilis KCTC 1022, Staphylococcus epidermidis KCTC 1917, Staphylococcus aureus KCTC 1621, S. aureus KCTC 1916, and S. aureus KCTC 3881 were purchased from the Korean Collection for Type Cultures, Korea Research Institute of Bioscience & Biotechnology (Taejon, Korea). Methicillin-resistant S. aureus (MRSA) (CCARM 3089, CCARM 3090, CCARM 3108, CCARM 3114, and CCARM 3126), multidrug-resistant E. coli (MDREC) (CCARM 1229 and CCARM 1238), multidrug-resistant S. typhimurium (MDRST) (CCARM 8003, CCARM 8007, and CCARM 8009), multidrug-resistant Acinetobacter baumanii (MDRAB) (CCARM 12005, CCARM 12035, CCARM 12036, CCARM 12037), and multidrug-resistant P. aeruginosa (MDRPA) (CCARM 2002, CCARM 2003, CCARM 2095, and CCARM 2163) were obtained from the Culture Collection of Antibiotic-Resistant Microbes (CCARM) at Seoul Women’s University in Korea. The antimicrobial activities of the peptides against selected organisms, including three Gram-positive, three Gram-negative, and five antibiotic-resistant bacteria, were determined using a broth microdilution assay. Briefly, single colonies of bacteria and fungi were inoculated into Luria-Bertani (LB) medium and cultured overnight at 37°C. An aliquot of the culture was transferred to 10 mL of fresh LB and incubated for an additional 3–5 h at 37°C until it reached the mid-logarithmic phase. Two-fold serial dilutions of the peptides in 1% peptone were prepared. The serial dilutions (100 µL) were added to 100 µL of cells (2×10^6 colony-forming units (CFU)/mL) in 96-well microtiter plates and incubated at 37°C for 16 h. […] MIC values were calculated as the average of triplicate measurements from three independent assays.

[28] = system: S. aureus KCTC1621; type: cell-based, Staphylococcus aureus; details: KCTC1621, 16 h
[29] = system: MDRST CCARM 8007; type: cell-based, multidrug-resistant S. typhimurium; details: broth microdilution, 37°C, 16 h, three independent experiments in triplicate, SD 14.0%
[30] = system: S. epidermidis KCTC1917; type: cell-based, Staphylococcus epidermidis; details: KCTC1917, 16 h
[31] = system: MRSA CCARM3089; type: cell-based, Methicillin-resistant S. aureus; details: CCARM3089, 16 h
[32] = system: P. aeruginosa KCTC2004; type: cell-based, Pseudomonas aeruginosa; details: KCTC2004, 16 h
[33] = system: E. coli KCTC1682; type: cell-based, Escherichia coli; details: KCTC1682, 16 h
[34] = system: MDREC CCARM 1238; type: cell-based, multidrug-resistant E. coli; details: broth microdilution, 37°C, 16 h, three independent experiments in triplicate, SD 14.0%

Row | Sequence | MIC [1] | MIC [2] | MIC [3] | MIC [4] | MIC [5] | MIC [6] | MIC [7] | MIC [8] | MIC [9] | MIC [10] | MIC [11] | MIC [12] | MIC [13] | MIC [14] | MIC [15] | MIC [16] | MIC [17] | MIC [18] | MIC [19] | MIC [20] | also measured
1 | FFHHIFRGIKHVGKTIHRLVTG [Pis-V10K] | 4.0 µM | 2.0 µM | 2.0 µM | 2.0 µM | 2.0 µM | 2.0 µM | 4.0 µM | 2.0 µM | 2.0 µM | 8.0 µM | 2.0 µM | 8.0 µM | 2.0 µM | 4.0 µM | 1.0 µM | 2.0 µM | 4.0 µM | 4.0 µM | 1.0 µM | 2.0 µM | MIC [21]: 1.0 µM; MIC [22]: 1.0 µM; MIC [23]: 4.0 µM; MIC [24]: 2.0 µM; MIC [25]: 2.0 µM; Average MIC [26]: 1.6 µM; Average MIC [27]: 3.8 µM; MIC [28]: 1.0 µM; MIC [29]: 4.0 µM; MIC [30]: 1.0 µM; MIC [31]: 8.0 µM; MIC [32]: 2.0 µM; MIC [33]: 1.0 µM; MIC [34]: 4.0 µM
2 | FFHHIKRGIKHVGKTIHRLVTG [Pis-F6K/V10K] | 8.0 µM | 4.0 µM | 4.0 µM | 4.0 µM | 4.0 µM | 8.0 µM | 8.0 µM | 4.0 µM | 2.0 µM | 16 µM | 4.0 µM | 8.0 µM | 2.0 µM | 8.0 µM | 4.0 µM | 4.0 µM | 8.0 µM | 8.0 µM | 4.0 µM | 4.0 µM | MIC [21]: 4.0 µM; MIC [22]: 8.0 µM; MIC [23]: 8.0 µM; MIC [24]: 4.0 µM; MIC [25]: 4.0 µM; Average MIC [26]: 5.0 µM; Average MIC [27]: 6.4 µM; MIC [28]: 4.0 µM; MIC [29]: 8.0 µM; MIC [30]: 4.0 µM; MIC [31]: 8.0 µM; MIC [32]: 8.0 µM; MIC [33]: 2.0 µM; MIC [34]: 8.0 µM
3 | FFHHIKRGIVHVGKTIHRLVTG [Pis-F6K] | 4.0 µM | 4.0 µM | 4.0 µM | 4.0 µM | 4.0 µM | 8.0 µM | 16 µM | 2.0 µM | 4.0 µM | 16 µM | 1.0 µM | 16 µM | 4.0 µM | 16 µM | 8.0 µM | 4.0 µM | 16 µM | 16 µM | 4.0 µM | 4.0 µM | MIC [21]: 4.0 µM; MIC [22]: 8.0 µM; MIC [23]: 16 µM; MIC [24]: 4.0 µM; MIC [25]: 4.0 µM; Average MIC [26]: 4.6 µM; Average MIC [27]: 11 µM; MIC [28]: 4.0 µM; MIC [29]: 16 µM; MIC [30]: 2.0 µM; MIC [31]: 16 µM; MIC [32]: 8.0 µM; MIC [33]: 4.0 µM; MIC [34]: 16 µM
4 | FKHHIFRGIKHVGKTIHRLVTG [Pis-F2K/V10K] | 8.0 µM | 4.0 µM | 2.0 µM | 2.0 µM | 4.0 µM | 8.0 µM | 8.0 µM | 4.0 µM | 2.0 µM | 16 µM | 4.0 µM | 8.0 µM | 2.0 µM | 8.0 µM | 1.0 µM | 2.0 µM | 8.0 µM | 8.0 µM | 2.0 µM | 2.0 µM | MIC [21]: 4.0 µM; MIC [22]: 2.0 µM; MIC [23]: 8.0 µM; MIC [24]: 2.0 µM; MIC [25]: 2.0 µM; Average MIC [26]: 4.0 µM; Average MIC [27]: 5.8 µM; MIC [28]: 2.0 µM; MIC [29]: 8.0 µM; MIC [30]: 4.0 µM; MIC [31]: 8.0 µM; MIC [32]: 8.0 µM; MIC [33]: 1.0 µM; MIC [34]: 8.0 µM
5 | FKHHIFRGIVHVGKTIHRLVTG [Pis-F2K] | 4.0 µM | 2.0 µM | 2.0 µM | 2.0 µM | 2.0 µM | 8.0 µM | 16 µM | 2.0 µM | 2.0 µM | 16 µM | 1.0 µM | 16 µM | 2.0 µM | 16 µM | 4.0 µM | 2.0 µM | 16 µM | 16 µM | 4.0 µM | 2.0 µM | MIC [21]: 2.0 µM; MIC [22]: 8.0 µM; MIC [23]: 16 µM; MIC [24]: 2.0 µM; MIC [25]: 2.0 µM; Average MIC [26]: 3.9 µM; Average MIC [27]: 9.8 µM; MIC [28]: 4.0 µM; MIC [29]: 16 µM; MIC [30]: 2.0 µM; MIC [31]: 16 µM; MIC [32]: 8.0 µM; MIC [33]: 4.0 µM; MIC [34]: 16 µM
